Reference: a melting point compilation (Tetko et al.; mined from patent text by program, amines drawn as free bases though some values may be those of a salt)

Row | melting point | Compound
1 | 90 °C | Cc1cc(Cl)ccc1-c1cc(F)cc2c1NC(CN)CO2 (stereo unspecified)
2 | 58 to 59 °C | OCCCc1cnoc1-c1ccc(Cl)cc1
3 | 123 to 126 °C | CCOc1cc2c(-c3ccnc(Cl)c3)c(CO)c(CO)cc2cc1OC
4 | 250 °C | CC(C)(C)OC(=O)Nc1cnc(Cl)cc1C(=O)O
5 | 146 to 147 °C | Cc1ccc(COC2C(Sc3ccccc3)OC(C)C(O)C2O)cc1 (stereo unspecified)
6 | 198 °C | CN(O)C(=O)Nc1ccc(S(C)(=O)=O)cc1
7 | 116 to 117 °C | CC(C)(C)OC(=O)CNC(=O)c1ccc(N)c(Cl)c1
8 | 109 to 110 °C | Cc1oc(-c2ccco2)nc1COc1ccc(COc2nn(Cc3ccc(OCc4nc(-c5ccco5)oc4C)cc3)cc2C=O)cc1
9 | 104 to 106 °C | CCCCCCCOc1ccc(C(=O)CCC(=O)O)cc1
10 | 90 to 92.5 °C | Cc1ccccc1C(=O)c1ccc(CC#N)n1C
11 | 180 °C | C[C@@]1(c2ccccc2)OC(c2ccccc2)=NC[C@H]1OC(=O)Nc1ccccc1 (racemic)
12 | 67 to 70 °C | CS(=O)(=O)c1ccc(Oc2ccc(OC(F)(F)C(Cl)Cl)cc2)cc1
13 | 212 to 214 °C | CSc1nccc(CC(=O)c2ccc(F)cc2)n1
14 | 212 °C | Cc1ccc(C)c2c1C(=O)N(c1ccc(F)cc1F)C2=O
15 | 156 °C | CCOC(=O)COCC1CCCN(C(=O)c2cnc(NC(=N)N)s2)C1 (racemic)
16 | 152 to 153 °C | Cc1ccc(S(=O)(=O)NCC[C@@H](NS(=O)(=O)c2ccc(C)cc2)C(=O)NO)cc1
17 | 125 to 127 °C | O=C(NCN1CCN(c2ccccn2)CC1)c1ccccc1
18 | 151 to 152 °C | c1ccc(CCN2CCC(c3n[nH]c4c3CCc3ccccc3-4)CC2)cc1
19 | 70 to 71 °C | O=C1c2ccccc2CN1CCCOc1ccncc1
20 | 85 to 88 °C | O=c1c(-c2ccccc2)nc2ccccc2n1CC(F)F
21 | 116 °C | CCCCNc1nc2cc(C)nn2c2ccncc12
22 | 68 to 69 °C | COc1cccc(-c2noc3cc(F)ccc23)c1
23 | 85 to 86 °C | c1ccc2cc(Cc3nc4cc(CCC5OCCO5)ccc4o3)ccc2c1
24 | 238 to 240 °C | COc1cc(Nc2c(C#N)cnc3cc(C#Cc4ccccn4)ccc23)c(Cl)cc1Cl
25 | 89 to 91 °C | FC(F)(F)c1ccc2nc[nH]c2c1
26 | 174 to 176 °C | COc1ccc(C(=O)NCC(=O)N2c3ccccc3N(Cc3ccccc3)C(=O)[C@H]3CCC[C@H]32)cc1OC (relative stereo)

The remaining lines, values behind:

Row | Compound | melting point
27 | Cc1noc(C2CN3CCC2CC3)n1 (stereo unspecified) | 112 to 115 °C
28 | O=C(Oc1ccccc1)n1c(=O)c(F)cn(C2CC(OCc3ccccc3)C(CO)O2)c1=O (stereo unspecified) | 110 to 112 °C
29 | O=C(O)CCc1cnoc1-c1ccc(OC(F)(F)F)cc1 | 116 to 118 °C
30 | CC(C)(C)S(=O)(=O)CCOCCn1ccc2ncnc(Nc3ccc(Oc4cccc(C(F)(F)F)c4)c(Cl)c3)c21 | 79.5 to 81.5 °C
31 | CC(O)C#Cc1ncn2c1CN(C)C(=O)c1ccccc1-2 (stereo unspecified) | 161 to 162 °C
32 | O=CC(=Cc1ccc(OC(=O)c2ccccc2)cc1)C(C=O)=Cc1ccc(OC(=O)c2ccccc2)cc1 | 207 to 208 °C
33 | CCOC(=O)C1=C(C)Nc2nc(N3CCOCC3)nc(N3CCOCC3)c2C1c1cccnc1 (stereo unspecified) | 229 °C
34 | Nc1c(SSc2c(-c3ncon3)nn(-c3c(Cl)cc(C(F)(F)F)cc3Cl)c2N)c(-c2ncon2)nn1-c1c(Cl)cc(C(F)(F)F)cc1Cl | 226 to 228 °C
35 | CCCCCc1nc2ccc(C(=O)O)cc2c(=O)o1 | 185 to 190 °C
36 | CCc1nc2cc(N(C)C)c(Cl)cc2n1-c1ccc(CCNC(=O)NS(=O)(=O)c2ccc(C)cc2)cc1 | 108 to 114 °C
37 | CC(=O)Nc1cc2c(cc1C#N)C(Nc1ccc(C(=O)OC(C)(C)C)c(F)c1)CC2 (stereo unspecified) | 172 to 173 °C
38 | CCCCC1(N(C)C)CCC(c2[nH]c3ccccc3c2CC2CCCCC2)CC1 (stereo unspecified) | 155 to 165 °C
39 | O=c1[nH]c2ccc(Cl)cc2c(=O)n1CCCN1CC=C(c2ccc(Cl)cc2)CC1 | 197 to 198 °C
40 | N#Cc1cccc(-c2ccc(C#N)c(Cn3cncn3)c2)c1 | 160 to 161 °C
41 | COc1nc2c(cc1NC(=S)N1CCN(c3cc(C)cc(C)c3)CC1)CCC2 | 159 to 161 °C
42 | O=C1c2ccccc2-n2cnc(-c3nc(C4CC4)no3)c2[C@@H]2CCCN12 | 211 to 212 °C
43 | CCOC(=O)c1c(N2CCN(C(=O)c3cccs3)CC2)c2cc(F)cnc2n(Cc2cccc(F)c2)c1=O | 113 °C
44 | Cc1cc(=O)n(C)c2c(C)cc(C(O)(C(F)(F)F)C(F)(F)F)cc12 | 241 to 243 °C
45 | O=C(O)CC[C@H](NCC(O)C(O)C(O)C(O)C(=O)O)C(=O)O (stereo partly specified) | 90 °C
46 | O=C1c2cccnc2N(N2CCCCCC2)C2=NCCN12 | 217 to 219 °C
47 | CC1(C)Oc2ccc([N+](=O)[O-])cc2C(n2ccccc2=O)=C1NC(=O)C(F)(F)F | 189 °C
48 | O=c1c2cccc3c2n(c(=O)n1CC(O)CO)-c1cc(C(F)(F)F)ccc1S3=O (stereo unspecified) | 224 to 225 °C
49 | CN(C)C1(c2ccccc2)CCC(c2[nH]c3ccccc3c2C2CC2)CC1 (stereo unspecified) | 238 to 245 °C

Row | Compound | melting point
50 | Oc1ccc(Nc2cc(-c3ccccc3)[nH]n2)cc1 | 215 to 217 °C
51 | O=C(c1ccc(Oc2ccc(C(F)(F)F)cc2Cl)cc1)C(Cl)Cl | 41 to 42 °C
52 | CC(O)CCc1ccc(-c2ccccc2)cc1 (stereo unspecified) | 74 to 75 °C
53 | Cc1ccc(S(=O)(=O)OCC2Cc3cccc(Br)c3O2)cc1 (stereo unspecified) | 120 to 122 °C
54 | CCCC(=O)c1cnc2c(C)cccc2c1Nc1ccc(OC)cc1C | 114 to 115 °C
55 | Cc1cc(O)c(S(=O)(=O)Cc2ccc(F)cc2)c(=O)o1 | 180 to 182 °C
56 | Clc1cccc(Nn2cnc3c2CCCC3)c1 | 180 °C
57 | CC(C)=CCc1c(C)c(C)c(O)c(C)c1C | 105 to 106 °C
58 | CCOC(=O)CCCCCNc1ccccc1 | 34 to 37 °C
59 | C=C(C)c1cc(Br)c(Oc2nc(C)nc(N3CCOCC3)n2)c(OC)c1 | 63 to 67 °C
60 | O=C(CCl)Nc1ccc2ncnc(Nc3cccc(Br)c3)c2c1 | > 300 °C
61 | Cc1cccc(OCC(=O)N[C@@H](Cc2ccccc2)C(=O)CSCc2ccco2)c1 | 76 to 78 °C
62 | CCC1C(C)=NN=C(c2ccc(OC)cc2)c2cc(OC)c(OC)cc21 (stereo unspecified) | 157 to 159 °C
63 | Cc1c(NC(=O)C(CSC(=O)CC(C)C)Cc2ccccc2)cccc1C(=O)O (stereo unspecified) | 118 to 120 °C
64 | CCc1nccn1CC1CC2c3cccc4[nH]cc(c34)CC2N(C)C1 (stereo unspecified) | 232 to 237 °C
65 | Cc1c(C(=O)OCc2ccc(Cl)cc2)oc2cccc(O)c12 | 202 to 204 °C
66 | CCCCCCCCc1sc(NC(=O)C2(C)Cc3cc(C)ccc3N2Cc2cccc(C(=O)OC)c2)nc1-c1cc(OC)c(Cl)cc1OC (stereo unspecified) | 165 to 166 °C
67 | O=C1Nc2ccc(NCCCc3ccccc3)cc2C12OCCO2 | 106 to 108 °C
68 | CC(C)(C)ONC(=O)[C@H]1CNCCN1C(=O)OC(C)(C)C | 113 to 114 °C
69 | Cc1ccc(-c2nc3cccnc3n2CC(=O)N(C)C)s1 | 193 to 197 °C
70 | O=C(CCCCCNC1(c2ccccc2Cl)C(=O)Nc2ccc(Cl)cc21)OCc1ccccc1 (stereo unspecified) | 98 to 99 °C
71 | Cc1cnc2c([N+](=O)[O-])cccc2c1Cl | 126 °C
